Each structure is given as a SMILES string. “And” between values parts separate entries of the source, which are not always exact repeats. Equal values may be shown once.

From BindingDB's records for PubMed 2156995 (Rhone-Poulenc Sante, 1990) come the findings set out here.

This test deals with Platelet-activating factor receptor (Homo sapiens, UniProt P25105).
Chain of Platelet-activating factor receptor (P25105 whole entry): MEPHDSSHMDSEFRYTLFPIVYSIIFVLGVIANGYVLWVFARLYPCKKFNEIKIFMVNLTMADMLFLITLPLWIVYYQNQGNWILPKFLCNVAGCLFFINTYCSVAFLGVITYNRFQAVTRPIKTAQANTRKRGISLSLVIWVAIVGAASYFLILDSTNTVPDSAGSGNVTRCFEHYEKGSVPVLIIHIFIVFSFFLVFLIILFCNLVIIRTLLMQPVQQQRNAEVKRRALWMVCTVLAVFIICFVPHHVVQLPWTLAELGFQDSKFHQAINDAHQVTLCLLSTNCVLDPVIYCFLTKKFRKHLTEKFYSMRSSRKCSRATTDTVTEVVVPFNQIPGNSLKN
The term Ki denotes a measure of affinity in units of concentration, obtained from inhibition or displacement. For `Cc1nnc2n1-c1sc(Br)cc1C(c1ccccc1Cl)=NC2` [2-Bromo-4-(2-chloro-phenyl)-9-methyl-6H-1-thia-5,7,8,9a-tetraaza-cyclopenta[e]azulene], the Ki is 80.5 nM and 17.4 nM.
To `C[C@@H]1C(=O)O[C@H]2[C@H](O)C34[C@H]5C[C@@H](C(C)(C)C)C36C(O)C(=O)O[C@H]6O[C@@]4(C(=O)O5)[C@@]12O` (some centres undefined) [BN 52021] belongs 964 nM and 643 nM; to `CCCCCCCCCCCCCCCCCCNC(=O)OCC(COCCCC[n+]1ccsc1)OC(=O)OC` (centres undefined) [CAS_129364], 38.6 nM and 16.9 nM.
To `CCCCCCCCCCCCCCCCCCNC(=O)OCC1CCC(COP(=O)([O-])OCC[n+]2cccc3ccccc32)O1` (centres undefined) [NSC_108044] belongs 129 nM and 130 nM.
